Data taken from PubChem BioAssay (NCI).
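Here, GI50 denotes the concentration required for 50% inhibition of growth. TGI marks complete inhibition of growth.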

Assays:
Test in all cases: inhibition of tumour cell growth, NCI panel, 384-well format
786-0 renal = test system: 786-0 renal
A498 renal = test system: A498 renal
A549 NSCLC = test system: A549 NSCLC
ACHN renal = test system: ACHN renal
BT-549 breast = test system: BT-549 breast
CAKI-1 renal = test system: CAKI-1 renal
CCRF-CEM leukemia = test system: CCRF-CEM leukemia
COLO 205 colon = test system: COLO 205 colon
DU-145 prostate = test system: DU-145 prostate
EKVX NSCLC = test system: EKVX NSCLC
HCC-2998 colon = test system: HCC-2998 colon
HCT-116 colon = test system: HCT-116 colon
HCT-15 colon = test system: HCT-15 colon
HL-60(TB) leukemia = test system: HL-60(TB) leukemia
HOP-62 NSCLC = test system: HOP-62 NSCLC
HOP-92 NSCLC = test system: HOP-92 NSCLC
HS 578T breast = test system: HS 578T breast
HT29 colon = test system: HT29 colon
IGROV1 ovarian = test system: IGROV1 ovarian
K-562 leukemia = test system: K-562 leukemia
KM12 colon = test system: KM12 colon
LOX IMVI melanoma = test system: LOX IMVI melanoma
M14 melanoma = test system: M14 melanoma
MALME-3M melanoma = test system: MALME-3M melanoma
MCF7 breast = test system: MCF7 breast
MDA-MB-231 breast = test system: MDA-MB-231 breast
MDA-MB-435 melanoma = test system: MDA-MB-435 melanoma
MDA-MB-468 breast = test system: MDA-MB-468 breast
MOLT-4 leukemia = test system: MOLT-4 leukemia
NCI-H226 lung = test system: NCI-H226 lung
NCI-H23 lung = test system: NCI-H23 lung
NCI-H322M lung = test system: NCI-H322M lung
NCI-H460 NSCLC = test system: NCI-H460 NSCLC
NCI-H522 lung = test system: NCI-H522 lung
NCI/ADR-RES ovarian = test system: NCI/ADR-RES ovarian
OVCAR-3 ovarian = test system: OVCAR-3 ovarian
OVCAR-4 ovarian = test system: OVCAR-4 ovarian
OVCAR-5 ovarian = test system: OVCAR-5 ovarian
OVCAR-8 ovarian = test system: OVCAR-8 ovarian
PC-3 prostate = test system: PC-3 prostate
RPMI-8226 leukemia = test system: RPMI-8226 leukemia
RXF 393 renal = test system: RXF 393 renal
SF-268 CNS = test system: SF-268 CNS
SF-295 CNS = test system: SF-295 CNS
SF-539 CNS = test system: SF-539 CNS
SK-MEL-2 melanoma = test system: SK-MEL-2 melanoma
SK-MEL-28 melanoma = test system: SK-MEL-28 melanoma
SK-MEL-5 melanoma = test system: SK-MEL-5 melanoma
SK-OV-3 ovarian = test system: SK-OV-3 ovarian
SN12C renal = test system: SN12C renal
SNB-19 CNS = test system: SNB-19 CNS
SNB-75 CNS = test system: SNB-75 CNS
SW-620 colon = test system: SW-620 colon
T-47D breast = test system: T-47D breast
TK-10 renal = test system: TK-10 renal
U251 glioblastoma = test system: U251 glioblastoma
UACC-257 melanoma = test system: UACC-257 melanoma
UACC-62 melanoma = test system: UACC-62 melanoma
UO-31 renal = test system: UO-31 renal

Nc1ncnc2c1c(-c1cccc(OCc3ccccc3)c1)cn2C1CC(CN2CCCC2)C1 (stereo not drawn)
GI50 ([…]-0 renal): 1690 nM | TGI (786-0 renal): 3080 nM | GI50 (A498 renal): 1730 nM | TGI (A498 renal): 3300 nM | GI50 (A549 NSCLC): 1670 nM | TGI (A549 NSCLC): 3410 nM | GI50 (ACHN renal): 2040 nM | TGI (ACHN renal): 4450 nM | GI50 (BT-549 breast): 1550 nM | TGI (BT-549 breast): 2980 nM | GI50 (CAKI-1 renal): 1660 nM | TGI (CAKI-1 renal): 3220 nM | GI50 (CCRF-CEM leukemia): 1850 nM | TGI (CCRF-CEM leukemia): 3260 nM | GI50 (COLO 205 colon): 442 nM | TGI (COLO 205 colon): 1640 nM | GI50 (DU-145 prostate): 3020 nM | TGI (DU-145 prostate): 11900 nM | GI50 (EKVX NSCLC): 1360 nM | TGI (EKVX NSCLC): 3740 nM | GI50 (HCC-2998 colon): 1290 nM | TGI (HCC-2998 colon): 2630 nM | GI50 (HCT-116 colon): 1560 nM | TGI (HCT-116 colon): 2990 nM | GI50 (HCT-15 colon): 1570 nM | TGI (HCT-15 colon): 3280 nM | GI50 (HL-60(TB) leukemia): 324 nM | TGI (HL-60(TB) leukemia): 1050 nM | GI50 (HOP-62 NSCLC): 1870 nM | TGI (HOP-62 NSCLC): 3490 nM | GI50 (HOP-92 NSCLC): 1460 nM | TGI (HOP-92 NSCLC): 2820 nM | GI50 (HS 578T breast): 1580 nM | TGI (HS 578T breast): 2950 nM | GI50 (HT29 colon): 769 nM | TGI (HT29 colon): 2060 nM | GI50 (IGROV1 ovarian): 3460 nM | TGI (IGROV1 ovarian): 12300 nM | GI50 (K-562 leukemia): 1560 nM | TGI (K-562 leukemia): 2950 nM | GI50 (KM12 colon): 1910 nM | TGI (KM12 colon): 4160 nM | GI50 (LOX IMVI melanoma): 1670 nM | TGI (LOX IMVI melanoma): 3050 nM | GI50 (M14 melanoma): 1400 nM | TGI (M14 melanoma): 2720 nM | GI50 (MALME-3M melanoma): 1250 nM | TGI (MALME-3M melanoma): 2520 nM | GI50 (MCF7 breast): 353 nM | TGI (MCF7 breast): 1690 nM | GI50 (MDA-MB-231 breast): 2050 nM | TGI (MDA-MB-231 breast): 4560 nM | GI50 (MDA-MB-435 melanoma): 1490 nM | TGI (MDA-MB-435 melanoma): 2840 nM | GI50 (MDA-MB-468 breast): 1520 nM | TGI (MDA-MB-468 breast): 2970 nM | GI50 (MOLT-4 leukemia): 1780 nM | TGI (MOLT-4 leukemia): 3170 nM | GI50 (NCI-H226 lung): 1470 nM | TGI (NCI-H226 lung): 4310 nM | GI50 (NCI-H23 lung): 1380 nM | TGI (NCI-H23 lung): 3560 nM | GI50 (NCI-H322M lung): 1860 nM | TGI (NCI-H322M lung): 4940 nM | GI50 (NCI-H460 NSCLC): 1320 nM | TGI (NCI-H460 NSCLC): 2750 nM | GI50 (NCI-H522 lung): 1900 nM | TGI (NCI-H522 lung): 3500 nM | GI50 (NCI/ADR-RES ovarian): 2290 nM | TGI (NCI/ADR-RES ovarian): 6640 nM | GI50 (OVCAR-3 ovarian): 1740 nM | TGI (OVCAR-3 ovarian): 3430 nM | GI50 (OVCAR-4 ovarian): 2030 nM | TGI (OVCAR-4 ovarian): 5180 nM | GI50 (OVCAR-5 ovarian): 1520 nM | TGI (OVCAR-5 ovarian): 3810 nM | GI50 (OVCAR-8 ovarian): 1790 nM | TGI (OVCAR-8 ovarian): 3510 nM | GI50 (PC-3 prostate): 1780 nM | TGI (PC-3 prostate): 3510 nM | GI50 (RPMI-8226 leukemia): 1720 nM | TGI (RPMI-8226 leukemia): 3110 nM | GI50 (RXF 393 renal): 1480 nM | TGI (RXF 393 renal): 2830 nM | GI50 (SF-268 CNS): 1760 nM | TGI (SF-268 CNS): 3190 nM | GI50 (SF-295 CNS): 1760 nM | TGI (SF-295 CNS): 3220 nM | GI50 (SF-539 CNS): 1800 nM | TGI (SF-539 CNS): 3210 nM | GI50 (SK-MEL-2 melanoma): 1060 nM | TGI (SK-MEL-2 melanoma): 2260 nM | GI50 (SK-MEL-28 melanoma): 1570 nM | TGI (SK-MEL-28 melanoma): 2920 nM | GI50 (SK-MEL-5 melanoma): 1200 nM | TGI (SK-MEL-5 melanoma): 2450 nM | GI50 (SK-OV-3 ovarian): 1740 nM | TGI (SK-OV-3 ovarian): 3290 nM | GI50 (SN12C renal): 1770 nM | TGI (SN12C renal): 3420 nM | GI50 (SNB-19 CNS): 3000 nM | TGI (SNB-19 CNS): 8690 nM | GI50 (SNB-75 CNS): 1900 nM | TGI (SNB-75 CNS): 3340 nM | GI50 (SW-620 colon): 1410 nM | TGI (SW-620 colon): 2960 nM | GI50 (T-47D breast): 1540 nM | TGI (T-47D breast): 3040 nM | GI50 (TK-10 renal): 1600 nM | TGI (TK-10 renal): 3170 nM | GI50 (U251 glioblastoma): 1890 nM | TGI (U251 glioblastoma): 3380 nM | GI50 (UACC-257 melanoma): 1480 nM | TGI (UACC-257 melanoma): 2810 nM | GI50 (UACC-62 melanoma): 1690 nM | TGI (UACC-62 melanoma): 3070 nM | GI50 (UO-31 renal): 1520 nM | TGI (UO-31 renal): 2880 nM
